Results taken from US20240261443A1, “COMPOUNDS AND COMPOSITIONS USEFUL AS RADIOTRACERS FOR IMAGING OF REACTIVE OXIDATIVE SPECIES” (Wake Forest University Health Sciences, priority 2019, published 2024).

Columns and labels:
[1] = Ex vivo biodistribution in normal ICR mice; conditions: for blood uptake / kidney uptake / liver uptake: in %ID/g (unit assumed)
SCC-61 and rSCC-61 cells = assay: [18F]KS1 in vitro cell uptake in HNSCC cells; format: cell-based, human
Description: ROS efficacy was evaluated in two tumor cell lines: (1)SCC-61 and rSCC-61 cells (HNSCC) (FIG. 5), and (2) PC3 (PCa) cell lines under normoxic and hypoxic conditions (FIG. 6) following previously published protocols by our group (Sai et al., Peptide-based PET imaging of the tumor restricted IL13RA2 biomarker. Oncotarget 2017, 5; Yamamoto et al., Correlation of 18F-FLT and 18F-FDG uptake on PET with Ki-67 immunohistochemistry in non-small cell lung cancer. European Journal of Nuclear Medicine and Molecular Imaging 2007, 34 (10), 1610-1616; Solingapuram Sai et al., Radiolabeling and initial biological evaluation of [18F]KBM-1 for imaging RAR-α receptors in neuroblastoma. Bioorganic & Medicinal Chemistry Letters 2017, 27 (6), 1425-1427). Several ROS blockers including fresh solution of non-radioactive compounds KS1, KS2, SOD (10 μM) in the cell media were added to the seeded tumor cells 1.0 h prior to radiotracer addition (n=6 per blocker). All the cells were then treated with [^18F]KS1 (2.0 μCi/well, UV mass=0.4 μg/mL and S.A=3100 mCi/μmol) and incubated for 60 min (n=6) at 37° C. All the cells (both with and without blockers) were washed and lysed with lysate buffer solution. Lysate samples from each well were collected for gamma counting.
Similarly, in another experiment, human PCa-PC3 cells were cultured under normoxic (˜21% O2) or hypoxic (1% O2) conditions for 48 h. Thereafter, similar to HNSCC cells (detailed above) all assay steps including blocker treatment, radiotracer addition, incubations, washings and lysis were carried out under normoxic or hypoxic conditions. All hypoxia experiments were performed in a hypoxia chamber (Biospherix X3 Xvivo system). Plates without radioactivity were used as controls. Additional aliquots were taken from each well to measure protein concentration. The counts per minute values of each well were normalized to the amount of radioactivity added to each well and was expressed as percent uptake relative to the control condition. The data were expressed as % ID/mg of protein present in each well.
We reported the basic in vitro cell uptake assay of [^18F]KS1 in PC3 and SCC-61 cell lines using KS1 and ascorbate as blockers (Solingapuram Sai et al., Initial biological evaluations of 18F-KS1, a novel ascorbate derivative to image oxidative stress in cancer. EJNMMI Research 2019, 9 (1), 43), following previously published protocols by our group (Sai, et al., Peptide-based PET imaging of the tumor restricted IL13RA2 biomarker. Oncotarget 2017, 8 (31), 50997-51007; Solingapuram Sai et al., Radiolabeling and initial biological evaluation of [(18)F]KBM-1 for imaging RAR-α receptors in neuroblastoma. Bioorganic & medicinal chemistry letters 2017, 27 (6), 1425-1427; Sattiraju et al., IL13RA2 targeted alpha particle therapy against glioblastomas. Oncotarget 2017, 8 (26), 42997-43007). Here we report complete cell uptake of [^18F]KS1 in SCC-61 and rSCC-61 cell lines of HNSCC using several ROS blocking agents including ascorbate, SOD, catalase, DHE, and non-radioactive compounds KS1 ([…]) and few ROS inducers including doxorubicin and ferritin. These agents were added in the cell media to the seeded tumor cells 1.0 h prior to radiotracer addition (n=6 per blocker). The y counts per minute values of each well were normalized to the amount of radioactivity added to each well and the protein concentration in the well and expressed as percent uptake relative to the control condition. The data were expressed as % ID/mg of protein present in each well. […]

[2] = tested on: SCC-61 and rSCC-61 cell lines; assay: MitoSOX fluorescence ROS assay, with or without SOD blocker; format: cell-based, human
Description: As a first-line tool to screen KS1 and KS2: SCC-61 has higher intracellular ROS than rSCC-61. MitoSOX is a mitochondrion-targeted dihydroethidium based derivative that primarily detects ROS (superoxide anion) produced within mitochondria. Mitosox assays without any ligands were used as controls. The two cell lines were treated with KS1, KS2 and ascorbate (10.0 μM) and incubated for an hour. MitoSOX (1.0 μM) in phenol red-free DMEM/F12 media was added and incubated for an additional 10 min. The cells were then washed with PBS and imaged in the same media.
In addition to testing KS1 with the MitoSOX assay, we compared our results with no ligand controls and ascorbate as a reference standard. The two cell lines were treated with KS1 and ascorbate (10.0 μM) and incubated for an hour. MitoSOX (1.0 μM) in phenol red-free DMEM/F12 media was added and incubated for an additional 10 min. The cells were then washed with PBS and imaged in the same media. Ligand specificity is commonly determined by pretreating the cells with high concentrations of blockers. Superoxide dismutase (SOD), an enzyme that selectively suppresses accumulation of ROS-superoxide peroxide anions, was added as blocker (1.0 mM) 60 min before the treatment of KS1 (Bielski et al., Chemistry of ascorbic acid radicals. in Ascorbic Acid: Chemistry, Metabolism, and Uses. Chapter. 1982; 4:81-100). Fluorescence was subsequently measured and its intensity was quantified in f.u (fluorescence units).
Ligand specificity is commonly determined by pretreating the cells with high concentrations of blockers. We used superoxide dismutase (SOD), an enzyme that selectively suppresses accumulation of ROS-superoxide peroxide anions (Bielski et al., Chemistry of ascorbic acid radicals. in Ascorbic Acid: Chemistry, Metabolism, and Uses. Chapter 1982, 4, 81-100). The same MitoSOX assay with KS1 and KS2 (10 μM) was performed by pretreating the SCC-61 cells with SOD (1.0 mM) for 60 min.

Work on `O=C1O/C(=C/CCl)C(O)=C1OCc1ccc(OCC[18F])cc1` [[^18F]KS1] yielded a blood uptake ([1]; 5 min post injection) of 1.361±0.71, a kidney uptake ([1]; 5 min post injection) of 14.793±1.33 and a liver uptake ([1]; 5 min post injection) of 9.72±2.55. It also gave a blood uptake ([1]; 120 min post injection) of 0.31±0.071, a kidney uptake ([1]; 120 min post injection) of 3.23±1.30 and a liver uptake ([1]; 120 min post injection) of 2.124±1.12. For the same compound, the bone uptake ([1]; normal ICR mice) was “No significant bone uptake”, the brain uptake ([1]; normal ICR mice) was “Poor brain uptake” and the “uptake increase with ROS inducer doxorubicin” value (SCC-61 and rSCC-61 cells; Example 8) was roughly 30%. The “radioactive uptake in SCC-61 cells compared to rSCC-61 uptake” value (SCC-61 and rSCC-61 cells; Example 8, 60 min, 37° C.) was roughly 1.5 fold, the “uptake blocked by nonradioactive KS1” value (SCC-61 and rSCC-61 cells; Example 8, KS1 10 μM added 1.0 h prior) was roughly 40% and the “uptake blocked by SOD” value (SCC-61 and rSCC-61 cells; Example 8, SOD 10 μM added 1.0 h prior) was roughly 60%. For the same compound, the “radioactive uptake in SCC-61 cells compared to rSCC-61 uptake” value (SCC-61 and rSCC-61 cells; Example 14) was roughly 3 fold, the “radioactive uptake increased by ROS-inducer Dox” value (SCC-61 and rSCC-61 cells; Example 14) was roughly 20% and the “radioactive uptake increased by ferritin” value (SCC-61 and rSCC-61 cells; Example 14) was roughly 32%. For the same compound, the “radioactive uptake inhibited by catalase” value (SCC-61 and rSCC-61 cells; Example 14) was roughly 90%, the “uptake in SCC-61 cells blocked by nonradioactive KS1” value (SCC-61 and rSCC-61 cells; Example 14, KS1 (100 PM) added 1.0 h prior) was roughly 70% and the “uptake in SCC-61 cells blocked by SOD” value (SCC-61 and rSCC-61 cells; Example 14, added 1.0 h prior) was roughly 65%. For the same compound, the “uptake in SCC-61 cells blocked by ascorbate” value (SCC-61 and rSCC-61 cells; Example 14, added 1.0 h prior) was roughly 65%.

With `O=C1O/C(=C/CCl)C(O)=C1OCc1ccc(OCCF)cc1` [KS1, (E)-5-(2-chloroethylidene)-3-(4-(2-fluoroethoxy)benzyloxy)-4-hydroxyfuran-2(5H)-one] the “MitoSOX fluorescence in SCC-61 compared to rSCC-61 cells” value ([2]; 10.0 μM, 1 h incubation) was “higher fluorescence”, the “higher selectivity between the two cell lines compared to ascorbate selectivity” value ([2]; Example 4, SCC-61 vs rSCC-61, MitoSOX fluorescence) was roughly 10 fold and the “higher differential selectivity between the high- and low-ROS cell lines compared to ascorbate” value ([2]; Example 5, SCC-61 vs rSCC-61, MitoSOX fluorescence) was roughly 2.2 fold. For the same compound, the “fluorescent intensity of KS1-mitoSOX with SOD” value ([2]; SCC-61 cells, 10 μM, SOD (1.0 mM) pretreatment 60 min) was 1842 f.u, the “fluorescent intensity of KS1-mitoSOX” value ([2]; SCC-61 cells, 10 μM, without SOD) was 3631 f.u and the “decrease of fluorescent uptake by SOD pretreatment” value ([2]; SCC-61 cells, SOD (1.0 mM) for 60 min) was roughly 50%.
